Measured values taken from ChEMBL document CHEMBL1201862, “PubChem BioAssay data set” (2004).
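A five-concentration, 48-hour dose response in 96-well plates underlies each endpoint, interpolated linearly between surrounding concentrations. Abbreviation: GI50, concentration required for 50% inhibition of growth.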 Active and inactive are the calls of the source. Rule as the data show it: active = GI50 up to about 1.1 µM and inactive = higher.

Tests used:
Assay in all cases: growth of human tumour cells (NCI), 48 h
ACHN = test system: ACHN
A498 = test system: A498
COLO 205 = test system: COLO 205
OVCAR-4 = test system: OVCAR-4
RPMI-8226 = test system: RPMI-8226
NCI-H460 = test system: NCI-H460
MOLT-4 = test system: MOLT-4
PC-3 = test system: PC-3
HCC 2998 = test system: HCC 2998
UO-31 = test system: UO-31
DU-145 = test system: DU-145
SF-268 = test system: SF-268
SK-MEL-28 = test system: SK-MEL-28
A549 = test system: A549
OVCAR-8 = test system: OVCAR-8
T47D = test system: T47D
SF-539 = test system: SF-539
RXF 393 = test system: RXF 393
OVCAR-3 = test system: OVCAR-3
Hs-578T = test system: Hs-578T

Measured: GI50

Oc1ccc2ccccc2c1NCn1nc(CCCCCCCCc2nn(CNc3c(O)ccc4ccccc34)c(=S)o2)oc1=S
inactive: ACHN > 100 µM | A498 > 100 µM | COLO 205 > 100 µM | OVCAR-4 > 100 µM | RPMI-8226 39.6 µM | NCI-H460 > 100 µM | MOLT-4 > 100 µM | PC-3 > 100 µM | HCC 2998 > 100 µM | UO-31 > 100 µM | DU-145 > 100 µM | SF-268 > 100 µM | SK-MEL-28 > 100 µM | A549 > 100 µM

C/C1=C\CC[C@@]2(C)O[C@@H]2C[C@@H]2[C@H](C/C(C)=C/CC1)OC(=O)C21CC1
inactive: ACHN 50.6 µM | OVCAR-8 > 100 µM | A498 > 100 µM | COLO 205 > 100 µM | T47D > 100 µM | SF-539 > 100 µM | RPMI-8226 12.1 µM | NCI-H460 56.8 µM | MOLT-4 21.7 µM | PC-3 > 100 µM | HCC 2998 > 100 µM | UO-31 92.3 µM | RXF 393 > 100 µM | OVCAR-3 > 100 µM | DU-145 59.7 µM | SF-268 > 100 µM | SK-MEL-28 > 100 µM | A549 > 100 µM

CSc1nc(C)cc(N(C)c2ccccc2)n1
inactive: ACHN 58.6 µM | OVCAR-8 34.8 µM | A498 50.1 µM | COLO 205 34.8 µM | OVCAR-4 > 100 µM | SF-539 28 µM | RPMI-8226 > 100 µM | NCI-H460 40.7 µM | MOLT-4 29.7 µM | Hs-578T 32.4 µM | PC-3 55.5 µM | HCC 2998 > 100 µM | UO-31 5.33 µM | RXF 393 31 µM | OVCAR-3 27.3 µM | DU-145 58.6 µM | SF-268 43.8 µM | SK-MEL-28 46.8 µM | A549 29 µM

N#Cc1c(N2CCOCC2)ncn(-c2ccc(Cl)cc2)c1=O
inactive: ACHN > 100 µM | OVCAR-8 > 100 µM | A498 > 100 µM | COLO 205 > 100 µM | T47D > 100 µM | SF-539 > 100 µM | RPMI-8226 > 100 µM | NCI-H460 > 100 µM | MOLT-4 > 100 µM | PC-3 > 100 µM | HCC 2998 > 100 µM | UO-31 > 100 µM | OVCAR-3 > 100 µM | DU-145 > 100 µM | SK-MEL-28 > 100 µM | A549 > 100 µM

Cc1nnc(N/N=C2/C(=O)Nc3ccccc32)nc1O
inactive: ACHN > 100 µM | OVCAR-8 > 100 µM | A498 > 100 µM | OVCAR-4 > 100 µM | SF-539 > 100 µM | RPMI-8226 > 100 µM | NCI-H460 > 100 µM | MOLT-4 > 100 µM | Hs-578T > 100 µM | PC-3 > 100 µM | UO-31 > 100 µM | OVCAR-3 > 100 µM | DU-145 > 100 µM | SF-268 > 100 µM | SK-MEL-28 > 100 µM | A549 > 100 µM

CCN(C(=S)N[C@H](C(=O)N[C@@H](C)C(=O)OC)C(C)C)c1ccccc1
inactive: ACHN 64.4 µM | OVCAR-8 21.8 µM | COLO 205 59.6 µM | T47D > 100 µM | OVCAR-4 > 100 µM | SF-539 28 µM | RPMI-8226 63.2 µM | NCI-H460 33.6 µM | MOLT-4 25.4 µM | PC-3 64.9 µM | HCC 2998 > 100 µM | UO-31 60.8 µM | RXF 393 62.1 µM | OVCAR-3 > 100 µM | DU-145 > 100 µM | SK-MEL-28 > 100 µM | A549 > 100 µM

Cc1nc2ccccc2[s+]c1-c1cnc(NC#N)nc1C(=O)Nc1cccc(Cl)c1
inactive: ACHN > 100 µM | OVCAR-8 > 100 µM | A498 > 100 µM | COLO 205 > 100 µM | OVCAR-4 > 100 µM | SF-539 > 100 µM | RPMI-8226 > 100 µM | NCI-H460 > 100 µM | MOLT-4 > 100 µM | HCC 2998 > 100 µM | UO-31 > 100 µM | RXF 393 > 100 µM | OVCAR-3 > 100 µM | SF-268 > 100 µM | SK-MEL-28 > 100 µM | A549 > 100 µM

COc1ccccc1C(=O)c1c(N2CCCCC2)c(=O)c1=O
inactive: ACHN > 100 µM | OVCAR-8 > 100 µM | A498 > 100 µM | COLO 205 > 100 µM | OVCAR-4 > 100 µM | SF-539 > 100 µM | RPMI-8226 92.7 µM | NCI-H460 > 100 µM | MOLT-4 > 100 µM | PC-3 > 100 µM | HCC 2998 > 100 µM | UO-31 > 100 µM | RXF 393 > 100 µM | OVCAR-3 > 100 µM | DU-145 > 100 µM | SF-268 > 100 µM | SK-MEL-28 > 100 µM | A549 > 100 µM

CCOP(=O)(OCC)/C(C#N)=C/c1[nH]cnc1C
inactive: ACHN > 100 µM | OVCAR-8 > 100 µM | A498 > 100 µM | COLO 205 > 100 µM | OVCAR-4 > 100 µM | SF-539 49.5 µM | RPMI-8226 > 100 µM | NCI-H460 > 100 µM | MOLT-4 > 100 µM | Hs-578T > 100 µM | PC-3 > 100 µM | HCC 2998 > 100 µM | UO-31 > 100 µM | RXF 393 > 100 µM | OVCAR-3 > 100 µM | DU-145 > 100 µM | SF-268 > 100 µM | SK-MEL-28 > 100 µM | A549 > 100 µM

O=C(N/C(=C\c1ccc(/C=C(\NC(=O)c2ccccc2)c2nc3ccccc3[nH]2)cc1)c1nc2ccccc2[nH]1)c1ccccc1
inactive: ACHN > 100 µM | OVCAR-8 > 100 µM | A498 > 100 µM | COLO 205 > 100 µM | OVCAR-4 > 100 µM | SF-539 > 100 µM | RPMI-8226 > 100 µM | NCI-H460 > 100 µM | MOLT-4 > 100 µM | HCC 2998 > 100 µM | UO-31 > 100 µM | RXF 393 > 100 µM | OVCAR-3 > 100 µM | SF-268 > 100 µM | SK-MEL-28 > 100 µM | A549 > 100 µM

Cc1ccc(S(=O)(=O)NC(CCC(=O)NNc2ccccc2)C(=O)NNc2ccccc2)cc1 (stereo unspecified)
inactive: ACHN 2.13 µM | OVCAR-8 6.43 µM | A498 > 100 µM | COLO 205 13.4 µM | T47D 5.47 µM | OVCAR-4 25.8 µM | SF-539 17.5 µM | RPMI-8226 5.58 µM | NCI-H460 16.8 µM | MOLT-4 3.85 µM | Hs-578T 64.1 µM | PC-3 4.14 µM | UO-31 6.1 µM | RXF 393 > 100 µM | OVCAR-3 54.6 µM | SF-268 46.8 µM | A549 15.6 µM
